What was measured:
[1] = system: Human PPARγ LBD fusion protein; experiment: Transcription activation potential, GAL4 luciferase reporter in C3A cells; type: cell-based
Description: (§1) Cells were seeded in 24 well plates the day prior to transfection at 5×10^4−2×10^5 cells/well, depending upon cell type. Cells were transfected using Lipofectamine 2000 reagent from Invitrogen. A total of 0.8 μg DNA/well was added to 50 μL of Optimem Reduced Serum media (serum free; Gibco). Lipofectamine 2000 was added (2.5 μL/well) to another tube containing 50 μL of Optimem media. Plasmid DNA was added at a ratio of 4:3 (reporter:activator); where appropriate, salmon sperm DNA was substituted for activator expressing plasmid. […] DNA constructs containing the mouse PPARα or PPARγ LBD fused to the GAL4 DNA binding domain were also used. The two solutions were incubated at room temperature for 5 min, and then combined. The combined solution was incubated at room temperature for approximately 30 min. Cells were washed once with PBS, and 100 μL of transfection mix added to each well. Plates were incubated at 37° C. in a 5% CO2 incubator for 4.5 hr, followed by aspiration of the transfection mix, with plates refed using EMEM complete media (supplemented with 10% FBS, 1× Glutamine). 24 hr post-transfection, plates were treated with the appropriate compounds in EMEM complete media, followed by washing once with PBS and addition of 100 μL 1× reporter lysis buffer/well (Promega) 24 hr after treatment. Plates went through one freeze/thaw cycle prior to analysis. Approximately 10 μL of lysate was added to 100 μL of firefly luciferase substrate, mixed by pipetting, and analyzed on a luminometer for 10 s using the integration function (relative luciferase units/RLU) or on a Microbeta Trilux (luciferase counts per second/LCPS). Each treatment was performed in triplicate, and in multiple, separate experiments.

[2] = molecular target: T1, Mouse PPARγ LBD fusion protein (Mus musculus, UniProt P37238); experiment: as above; type: cell-based
T1 sequence (P37238 238-503): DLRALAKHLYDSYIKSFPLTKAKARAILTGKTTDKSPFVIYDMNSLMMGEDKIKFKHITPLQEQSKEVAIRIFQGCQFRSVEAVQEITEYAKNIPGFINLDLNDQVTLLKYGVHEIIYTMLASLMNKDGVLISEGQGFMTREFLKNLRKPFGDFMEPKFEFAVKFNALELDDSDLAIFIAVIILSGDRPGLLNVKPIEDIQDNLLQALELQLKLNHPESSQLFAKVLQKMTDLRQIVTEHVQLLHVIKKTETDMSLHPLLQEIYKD
Description: as §1

[3] = molecular target: T1, Mouse PPARγ LBD fusion protein; experiment: Transcription activation potential, GAL4 luciferase reporter in Hepa1.6 cells; type: cell-based
Description: as §1

[4] = system: male ob/ob mouse model of Type II diabetes; experiment: Antidiabetic effects in ob/ob mice (serum chemistry after 2 weeks daily oral dosing); type: in vivo
Description: Obese (ob/ob) mice have a defect in the protein leptin, a regulator of appetite and fuel metabolism, leading to hyperphagia, obesity and diabetes.
Male obese (ob/ob homozygote) C57BL/6J mice, approximately 8 weeks of age, were obtained from Jackson Labs (Bar Harbor, Me.) and randomly assigned into groups of 5 animals each such that the body weights (45-50 g) and serum glucose levels (≧300 mg/dl in fed state) were similar between groups. A minimum of 7 days was allowed for adaptation after arrival. All animals were maintained under controlled temperature (23° C.), relative humidity (50±5%) and light (7:00-19:00), and allowed free access to standard chow (Formulab Diet 5020 Quality Lab Products, Elkridge, Md.) and water.
Treatment cohorts were given daily oral doses of vehicle (1% hydroxypropyl-methylcellulose), Compounds BI, CF, CA, CB, CC, or CD for 2 weeks. At the end of the treatment period 100 μl of venous blood was withdrawn in a heparinized capillary tube from the retro-orbital sinus of ob/ob mice for serum chemistry analysis.

[5] = 100 μM test compound, Table 20b
[6] = 200 μM test compound, Table 20b
[7] = 60 mg/kg, 2 weeks daily oral dosing

| transcription activation potential (luciferase) ± standard deviation ([2]; 1 μM test compound, Table 20b) [LCPS] | transcription activation potential (luciferase) ± standard deviation ([2]; 1 μM, Table 21b) [RLU] | transcription activation potential (luciferase) ± standard deviation ([2]; 3 μM test compound, Table 20b) [LCPS] | transcription activation potential (luciferase) ± standard deviation ([2]; 10 μM test compound, Table 20b) [LCPS] | transcription activation potential (luciferase) ± standard deviation ([2]; 10 μM, Table 21b) [RLU] | transcription activation potential (luciferase) ± standard deviation ([2]; 30 μM test compound, Table 20b) [LCPS] | transcription activation potential (luciferase) ± standard deviation ([2]; 30 μM, Table 21b) [RLU] | transcription activation potential (luciferase) ± standard deviation [2, 5] [LCPS] | transcription activation potential (luciferase) ± standard deviation ([2]; 100 μM, Table 21b) [RLU] | transcription activation potential (luciferase) ± standard deviation [2, 6] [LCPS] | Structure (SMILES) | transcription activation potential (luciferase) ± standard deviation ([1]; 1 μM test compound) [LCPS] | transcription activation potential (luciferase) ± standard deviation ([1]; 3 μM test compound) [LCPS] | transcription activation potential (luciferase) ± standard deviation ([1]; 10 μM test compound) [LCPS] | transcription activation potential (luciferase) ± standard deviation ([1]; 30 μM test compound) [LCPS] | transcription activation potential (luciferase) ± standard deviation ([1]; 100 μM test compound) [LCPS] | transcription activation potential (luciferase) ± standard deviation ([1]; 200 μM test compound) [LCPS] | other results |
| --- | --- | --- | --- | --- | --- | --- | --- | --- | --- | --- | --- | --- | --- | --- | --- | --- | --- |
| 0.33 ± 0.21 | 146 ± 119 | 10.6 ± 8.74 | 17.2 ± 21 | 207 ± 107 | 88.2 ± 33.2 | 818 ± 1201 | 45.8 ± 36.9 | 237 ± 216 | 93.6 ± 29.7 | Cc1cccc(C)c1COc1cccc(CC(=O)O)c1 [Compound CF, 3-(2,6-Dimethylbenzyloxy)phenylacetic acid] | 6.2 ± 0.6 | 49.4 ± 7.8 | 141.5 ± 25.9 | 230.4 ± 97.2 | 225.2 ± 57.5 | 280.1 ± 89.7 | transcription activation potential (luciferase) ± standard deviation ([2]; 3 μM, Table 21b): 579 ± 557 RLU; transcription activation potential (luciferase) ± standard deviation ([2]; 5 μM, Table 21b): 476 ± 527 RLU; transcription activation potential (luciferase) ± standard deviation ([2]; 7 μM, Table 21b): 834 ± 984 RLU; transcription activation potential (luciferase) ± standard deviation ([3]; 1 μM): 361 ± 138 RLU; transcription activation potential (luciferase) ± standard deviation ([3]; 3 μM): 602 ± 144 RLU; transcription activation potential (luciferase) ± standard deviation ([3]; 5 μM): 710 ± 87 RLU; transcription activation potential (luciferase) ± standard deviation ([3]; 7 μM): 786 ± 418 RLU; transcription activation potential (luciferase) ± standard deviation ([3]; 10 μM): 1140 ± 111 RLU; transcription activation potential (luciferase) ± standard deviation ([3]; 30 μM): 1253 ± 554 RLU; transcription activation potential (luciferase) ± standard deviation ([3]; 100 μM): 1534 ± 608 RLU; Glucose ([4]; 60 mg/kg daily oral, 2 weeks): 161.2 ± 14.0 mg/dL; Glucose (% of Control) ([4]; 60 mg/kg daily oral, 2 weeks): 38.0 ± 3.0 % of Control; reduction in blood glucose (in words) [4, 7]: significant reduction; reduction in free fatty acids (in words) [4, 7]: significant reduction; reduction in triglycerides (in words) [4, 7]: significant reduction |
| 8.47 ± 5.01 | 634 ± 195 | 14.8 ± 4.3 | 20.87 ± 4.1 | 405 ± 318 | 55.4 ± 30.6 | 1562 ± 354 | 78.8 ± 23.1 | 2555 ± 1609 | 101.2 ± 59.1 | Cc1cccc(C)c1COc1cccc(C(=O)O)c1 [Compound CG, 3-(2,6-Dimethylbenzyloxy)benzoic acid] | 47.9 ± 7.2 | 73.6 ± 39.1 | 72.5 ± 28.2 | 205.6 ± 37.1 | 403.6 ± 86.1 | 598.1 ± 190.4 |  |

— patent publication US7932290B2, “Method for the treatment of metabolic disorders” (Wellstat Biologics Corporation, priority 2003, dated 2011)
